Data taken from patent US20210260096A1, “PHARMACEUTICAL COMPOSITION FOR TREATING WOUND OR ACTIVATING SKIN, CONTAINING BETA-GLUCAN, GLYCITIN, AND 4',6,7-TRIMETHOXYISOFLAVONE” (Quegen Biotech Co., Ltd., priority 2018, published 2021).

Legend:
[1] = system: human keratinocytes (HaCaTs); experiment: Differentiation, migration and invasion of epithelial cells under β-glucan single treatment; assay type: cell-based; conditions: 0.5% β-glucan among 0 to 10%; FIG. 1
Method: (§1) The differentiation, migration and invasion of epithelial cells, such as human keratinocytes, and the differentiation of fibroblasts according to the single treatment of β-glucan were examined. β-glucan was produced by QUEGEN BIOTECH Co., LTD and used. Human dermal fibroblasts and human keratinocytes were purchased from Korean Cell Line Bank and used. The human dermal fibroblasts (HDFs) or the human keratinocytes (HaCaTs) were seeded in a 6-well plate containing […] of 10% FBS-containing DMEM at 1×10^4 cells/well (HDF) and 5×10^4 cells/well (HaCaT), and cultured under conditions of 37° C. and 5% CO2. During culture, the concentration of the epithelial cells (HaCaTs) and the fibroblasts were treated with 200 μL of β-glucan to have a concentration of 0 to 10% in a concentration dependent manner.

[2] = system: human dermal fibroblasts (HDFs); experiment: Differentiation of fibroblasts under β-glucan single treatment; assay type: cell-based; conditions: β-glucan 0 to 10%; FIG. 1
Method: as §1

HaCaTs and HDFs = experiment: Proliferation and migration in Transwell HaCaT/HDF co-culture by composition of mixed solution; assay type: cell-based, human; conditions: with respect to control PBS, 24 hours
Method: 5×10^4 cells/well of HaCaTs were seeded in the upper part and 1×10^4 cells/well of HDFs were seeded in the lower part of a Transwell invasion kit, […] of 10% FBS-containing DMEM and the three kinds of test solutions were treated and incubated under conditions of 37° C. and 5% CO2 for 24 hours, followed by determining an optimal concentration condition.

Substance: β-glucan
- differentiation, migration and invasion of epithelial cells by concentration [1]: optimal results
- differentiation of the fibroblasts [2]: no significant change
- Migration (%) (HaCaTs and HDFs; 0.1%): 110%
- Proliferation (%) (HaCaTs and HDFs; 0.1%): 105%
- Migration (%) (HaCaTs and HDFs; 0.25%): 130%
- Proliferation (%) (HaCaTs and HDFs; 0.25%): 111%
- Migration (%) (HaCaTs and HDFs; 0.5%): 151%
- Proliferation (%) (HaCaTs and HDFs; 0.5%): 120%
- Migration (%) (HaCaTs and HDFs; 0.7%): 153%
- Proliferation (%) (HaCaTs and HDFs; 0.7%): 125%
- Migration (%) (HaCaTs and HDFs; 1.0%): 161%
- Proliferation (%) (HaCaTs and HDFs; 1.0%): 122%
- Migration (%) (HaCaTs and HDFs; 1.5%): 110%
- Proliferation (%) (HaCaTs and HDFs; 1.5%): 118%
